pIC50: −log10 of the molar value.

The pIC50 is the IC50 on a negative log10 scale, so that one unit is a factor of ten.

For experiment [1], the system named is 12 colon lines without BRAF V600E mutation. Kind of experiment: Cell growth inhibition assay (Cell Titer Glo, 3 days), summary over lines. In kind it is cell-based. Particulars: Homo sapiens; the other 12 colon lines without BRAF V600E mutation; single agent. The method, then:
Human colon tumor lines, Colo205, DLD1, HCC2998, HCT15, HCT8, HT29, KM-12, LS1034, LS174T, NCI-H508, RKO, SW1417, SW1463, SW480, SW837 and T84, and human melanoma line A375 were from ATCC.
All cells were cultured for a minimum of 72 hours prior to cell plating. […] Cells were incubated in the presence of compounds for 3 days. ATP levels were determined by adding Cell Titer Glo® (Promega) according to the manufacturer's protocol. Briefly, Cell Titer Glo® was added each plate, incubated for 30 minutes then luminescent signal was read on the SpectraMax L plate reader with a 0.5 sec integration time.
Inhibition of cell growth was estimated after treatment with compound or combination of compounds for three days and comparing the signal to cells treated with vehicle (DMSO). Cell growth was calculated relative to vehicle (DMSO) treated control wells.
Combination effects on potency were evaluated using Combination Index (CI) which was calculated with the back-interpolated IC50 values and the mutually non-exclusive equation derived by Chou and Talalay (1): CI=Da/IC50(a)+Db/IC50(b)+(Da×Db)/(IC50(a)×IC50(b))
In general, a CI value <0.9, between 0.9 and 1.1, or >1.1 indicates synergy, additivity and antagonism, respectively. In general, the smaller the CI number, the greater is the strength of synergy.
EOHSA values are defined as increases in improvement (here, in ‘percentage points’ (ppts) difference) produced by the combination over the best single agent at its component dose level for the combination. For single agent and combination treatments, cells were exposed to compounds at a fixed-dose-ratio, and dose response curves were fit to the experimental data and analyzed using regression models. At specified total dose levels of IC50 along the dose response curve, the dose combination (corresponding to IC50) was determined for making EOHSA statistical inferences.

Another experiment concerns HCC2998. Briefly: Cell growth inhibition assay (Cell Titer Glo, 3 days). Type of experiment: cell-based. The conditions noted are these: Homo sapiens, HCC 2998; HCC2998, colon; BRAF WT, KRAS A146T, PIK3CA WT; mean ± std; read-out: IC50 Single Agent. The method, then:
Human colon tumor lines, Colo205, DLD1, HCC2998, HCT15, HCT8, HT29, KM-12, LS1034, LS174T, NCI-H508, RKO, SW1417, SW1463, SW480, SW837 and T84, and human melanoma line A375 were from ATCC. A375PF11 was derived from A375, 12R5-1, 12R5-3, 12R8-1, 12R8-3, 16R5-2, 16R6-3 and 16R6-4 are single cell clones derived from mixed populations of A375PF11 cells that were selected to grow in Compound A to concentrations of 1200 and 1600 nM. All lines were cultured in RPMI 1640 medium containing 10% fetal bovine serum (FBS).
All cells were cultured for a minimum of 72 hours prior to cell plating. Cells were assayed in a 96-well tissue culture plate (NUNC 136102) of RPMI medium containing 10% FBS for all cells at 1,000 cells per well. Approximately 24 hours after plating, cells were exposed to ten, three-fold serial dilutions of compound or the combination of the two agents at a constant molar to molar ratio of 1:10 Compound A to Compound B in RPMI media containing 10% FBS. Cells were incubated in the presence of compounds for 3 days. ATP levels were determined by adding Cell Titer Glo® (Promega) according to the manufacturer's protocol. Briefly, Cell Titer Glo® was added each plate, incubated for 30 minutes then luminescent signal was read on the SpectraMax L plate reader with a 0.5 sec integration time.
Inhibition of cell growth was estimated after treatment with compound or combination of compounds for three days and comparing the signal to cells treated with vehicle (DMSO). Cell growth was calculated relative to vehicle (DMSO) treated control wells. […]
On the technique in general: In ATP-based viability assays light output follows the ATP content of the culture.

As to `CC(C)(C)c1nc(-c2cccc(NS(=O)(=O)c3c(F)cccc3F)c2F)c(-c2ccnc(N)n2)s1` [Compound A, N-{3-[5-(2-Amino-4-pyrimidinyl)-2-(1,1-dimethylethyl)-1,3-thiazol-4-yl]-2-fluorophenyl}-2,6-difluorobenzenesulfonamide], the pIC50 in experiment [1] is < 5.30; with HCC2998, < 5.00.

The record behind these values is patent US9402846B2, “Combination of inhibitor of B-Raf and inhibitor of AKT in the treatment of cancer” (Novartis AG, priority 2009, dated 2016).
